Reference: patent publication US20170275287A1, “NOVEL N2, N4, N7, 6-TETRASUBSTITUTED PTERIDINE-2,4,7-TRIAMINE AND 2, 4, 6, 7-TETRASUBSTITUTED PTERIDINE COMPOUNDS AND METHODS OF SYNTHESIS AND USE THEREOF” (Janus Biotherapeutics, Inc., priority 2014, published 2017)

Experiments:
five bacterial strains = assay: Non-GLP AMES test (BioRelience); conditions: five bacterial strains plus or minus S9 fraction to 5000 μg
Protocol: A non-GLP AMES test study was performed by BioRelience Inc, MD according to Maron, D. M. and Ames, B. N., 1983, Mutation Res., 113:173-215. The test was performed in five bacterial strains plus or minus S9 fraction to 5000 μg.

[1] = Protein binding, human plasma (CEREP); assay type: in vitro ADME; conditions: read-out: Protein Binding, Human Plasma, % bound (converted)
Protocol: (§1) Preliminary screening measures were conducted by CEREP. All values fall within acceptable limits (Table 5). Solubility assays where performed by CEREP, Seattle, Wash., according to Lipinski, C. A. et al., 1997, Adv. Drug Del. Rev., 46:3-26. Protein binding assays where performed by CEREP, Seattle, Wash., according to Banker, M. J. et al., 2003, J. Pharm. Sci., 92:967-974. Permeability assays where performed by CEREP, Seattle, Wash. according to Hildalgo, I. J., 1998, Gastroenterology, 96:736-749. Metabolic stability assays where performed by CEREP, Seattle, Wash., according to Obach, R. S. et al., 1997, J. Pharmacol. Exp. Ther., 283:46-58. P-glycoprotein inhibition assays where performed by CEREP, Seattle, Wash., according to Polli, J. W. et al., 2001, J. Pharm. Exp. Ther., 299:620-628. Cell viability assays where performed by CEREP, Seattle, Wash., according to Mosmann, T., 1983, J. Immunol. Met. 65:55-62. hERG automated patch clamp assays where performed by CEREP, Seattle, Wash., according to Mathes, C., 2006, Expert Opin. Ther. Targets, 10:230-241.

[2] = A-B permeability, CaCo-2 cells (CEREP); assay type: in vitro ADME; conditions: human, pH 6.5/7.4
Protocol: as §1

TLR9 = target: T1, TLR9 (Mus musculus, UniProt Q9EQU3); assay: In vivo TLR9 knockdown (CpG-DNA challenge, serum cytokines); parameters: species or system mice
T1 construct: endogenous in cells
T1 sequence (Q9EQU3 26-1032): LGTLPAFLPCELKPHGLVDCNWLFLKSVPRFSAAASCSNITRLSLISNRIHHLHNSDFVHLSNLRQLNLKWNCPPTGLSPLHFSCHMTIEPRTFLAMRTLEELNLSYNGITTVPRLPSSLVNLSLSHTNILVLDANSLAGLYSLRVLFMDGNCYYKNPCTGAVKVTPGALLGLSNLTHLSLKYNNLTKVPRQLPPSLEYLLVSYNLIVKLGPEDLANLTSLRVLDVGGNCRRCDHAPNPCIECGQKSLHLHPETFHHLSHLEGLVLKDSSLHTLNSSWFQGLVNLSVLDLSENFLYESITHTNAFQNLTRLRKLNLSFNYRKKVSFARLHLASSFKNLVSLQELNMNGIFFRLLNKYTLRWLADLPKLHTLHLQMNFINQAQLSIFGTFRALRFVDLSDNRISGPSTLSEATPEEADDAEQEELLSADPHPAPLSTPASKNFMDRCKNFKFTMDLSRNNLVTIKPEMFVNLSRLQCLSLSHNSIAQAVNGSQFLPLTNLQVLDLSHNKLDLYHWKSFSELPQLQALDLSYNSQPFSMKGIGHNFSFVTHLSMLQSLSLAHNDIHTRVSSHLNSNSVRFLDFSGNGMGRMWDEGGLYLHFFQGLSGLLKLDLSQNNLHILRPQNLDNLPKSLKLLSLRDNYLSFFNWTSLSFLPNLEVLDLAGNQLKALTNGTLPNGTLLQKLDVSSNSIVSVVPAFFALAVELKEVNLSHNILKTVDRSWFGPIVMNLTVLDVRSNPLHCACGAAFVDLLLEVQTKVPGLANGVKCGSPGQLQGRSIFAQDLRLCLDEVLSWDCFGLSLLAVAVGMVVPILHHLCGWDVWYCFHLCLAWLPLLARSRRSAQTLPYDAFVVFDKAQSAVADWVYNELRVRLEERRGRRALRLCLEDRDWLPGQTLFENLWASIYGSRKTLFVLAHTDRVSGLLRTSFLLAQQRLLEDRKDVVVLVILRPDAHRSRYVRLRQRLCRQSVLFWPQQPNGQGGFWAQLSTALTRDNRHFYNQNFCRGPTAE
Protocol: Mice were treated with test antagonist at varying doses at T=0 hr. Agonist treatment (CpG-DNA) dosed one hour later, T=1 hr for IP groups and two hours later, T=2 hr for PO groups. Necropsy performed 3 hours post agonist treatment, T=4 hr (IP groups) or T=5 hr (PO groups). Serum cytokines induced by the TLR agonist are measured by ELISA. Groups size per dose, n=3. The mean+/−SD of two independent ELISA's at differing serum dilutions is plotted.

CN1CCN(c2nc(NCCN3CCOCC3)c3nc(Cl)c(NCCN4CCOCC4)nc3n2)CC1 [JB6121, 6-chloro-2-(4-methylpiperazin-1-yl)-N^4,N^7-bis(2-morpholinoethyl)pteridine-4,7-diamine]
AMES test (five bacterial strains): no toxicity | fraction unbound [1]: 0.13 | Papp A→B [2]: 1.2 ×10⁻⁶ cm/s | ID50, TLR9 knockdown, IP injection (TLR9; mice, IP, CpG-DNA 1 h later): 55.27 μg injection dose | ID50, TLR9 knockdown, PO gavage (TLR9; mice, PO, CpG-DNA 2 h later): 59.99 μg delivery dose | ED50 (TLR9; mouse, translated for a 25 gram mouse, read-out: ID50, TLR9 knockdown): ~2.4 mg/kg
